In patent EP2535710A1, “Method for determining the immune toxicity of a compound in vitro” (Rijksinstituut Voor Volksgezondheid En Milieu, priority 2011, dated 2012):

Columns and labels:
Murine EL4 cells = conditions: trypan blue dye exclusion, 0.5 µM TBTO, 37 °C for 6 hr, range in all experiments
Description: Murine EL4 cells were cultured as described before [10]. Each treated sample or control contained 5×10^7 cells in a volume of 20 mL. A 1 mM TBTO stock solution was prepared in ethanol and 10 µl of this solution was added to each one of the cell suspension samples so that the final concentration of TBTO was 0.5 µM, whereas 10 µl of ethanol without TBTO was added to the control cells. Two independent replicate experiments for both treated sample and control were performed. Subsequently, cells were incubated at 37 °C for 6 hr.

cells = conditions: TBTO concentrations higher than 1µM and incubation times longer than 6h; refs [10, 21]; cited from earlier work
Matrin 3 = test: Western blot analysis of TBTO-treated and control cell extracts; type: cell-based, Murine; conditions: Immunoblot, TBTO-treated cells versus control extract; EL4 cells, 0.5 µM TBTO, 6 hr; Fig. 1 b
Description: (§1) Murine EL4 cells were cultured as described before.
(§2) After exposure, cell suspensions were centrifuged at 1200 rpm for 10 min at 4 °C and the pellets were washed in 20 mL phosphate-buffered saline (PBS, pH 7.2) and centrifuged again. This procedure was repeated twice. The obtained cell pellet of each sample or control was then suspended in 5 mL of phosphoprotein lysis buffer prepared following the instructions of Phosphoprotein Purification Kit (Qiagen). This volume of the lysis buffer contained, in addition to the detergent CHAPS and Benzonase (10 µL), one tablet of protease inhibitor and Phosphatase Inhibitor Cocktail 1 (10 µL). The cell suspension was incubated on ice for 30 min and vortexed briefly and gently every 10 min. After that, the cell lysate was centrifuged at 10.000 rpm for 30 min at 4 °C. The supernatant was then taken and protein concentration determined according to Bradford. A total amount of 2.5 mg protein, at the concentration of 0.1 mg/mL, was loaded on the affinity column, which was pre-equilibrated with lysis buffer as recommended by the manufacturer. The chromatography was performed at room temperature. […] These enriched fractions were combined and the protein concentration was determined. […]

RPS6KB1 (Thr444/Ser447) = test: as above; type: cell-based, Murine; conditions: treated cells compared to control extract, EL4 cells, 0.5 µM TBTO, 6 hr, Figure 1a
Description: as §1, §2

MAPK1 = test: Phosphoproteome analysis of TBTO-treated cells (phosphoprotein and TiO2 phosphopeptide enrichment, nano-LC/MS/MS); type: cell-based, Murine; conditions: whole protein; abundantly present in control cells; EL4 cells, 0.5 µM TBTO, 6 hr
Description: as §1, §2

SMILES: CCC[CH2][Sn]([CH2]CCC)([CH2]CCC)[O][Sn]([CH2]CCC)([CH2]CCC)[CH2]CCC [TBTO, tributyltin oxide]
- Cell viability (Murine EL4 cells): 85-90%
- apoptosis of cells (cells): caused apoptosis of cells
- band corresponding to Matrin 3 (ca. 125-130 kDa) (Matrin 3): not detectable
- intensity signal of the band corresponding to Thr444/Ser447 (RPS6KB1 (Thr444/Ser447)): decrease in the intensity signal
- detection of MAPK1 phosphoprotein in TBTO-treated cells (MAPK1): not detected
